From patent US6608082B1, “Treatment of erectile dysfunction using isoquinoline compound melanocortin receptor ligands” (Lion Bioscience AG, priority 1998, dated 2003) come the findings set out here.

pIC50: −log10 of the molar value. Where two headings read alike, the source gives them in different places.

The target in one test is T1, MCR-1 (Homo sapiens, UniProt Q01726).
T1 construct: expressed in transfected cells; host or cells: HEK 293
Kind of test: Melanocortin receptor binding assay, competition with 125I-HP 467, HEK 293 cells expressing hMCR-1. Conditions: for pIC50: read-out: MC-1 IC50; for % Disp. MC-1 10 μM: displacement of 125I-HP 467 at 10 μM isoquinoline compound. Summed up: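 Intact-cell competition binding, 2.5 hr at 37 °C, in PBS/10% calf serum/1 mM CaCl2; hMCR-4 cells at 4×10^3 per tube, hMCR-1 cells at 2×10^4 per tube. Filtration on BSA/CaCl2-soaked GF/B, cold 50 mM Tris pH 7.4 washes, scintillation count.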
Background: In a radioligand displacement assay an active substance lowers the binding of a labelled ligand.

The target of another test is T2, MCR-4 (Homo sapiens, UniProt P32245).
T2 construct: expressed in transfected cells; host or cells: HEK 293
T2 sequence (P32245 whole entry): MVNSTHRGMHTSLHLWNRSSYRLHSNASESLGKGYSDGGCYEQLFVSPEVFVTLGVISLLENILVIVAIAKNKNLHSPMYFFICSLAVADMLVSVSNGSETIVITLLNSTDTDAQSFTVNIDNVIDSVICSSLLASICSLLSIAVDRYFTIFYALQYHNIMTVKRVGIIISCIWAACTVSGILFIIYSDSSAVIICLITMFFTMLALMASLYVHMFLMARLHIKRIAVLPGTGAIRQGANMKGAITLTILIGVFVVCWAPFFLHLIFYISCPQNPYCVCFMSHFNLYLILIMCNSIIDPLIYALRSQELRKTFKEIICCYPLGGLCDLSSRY
Kind of test: Melanocortin receptor binding assay, competition with 125I-HP 467, HEK 293 cells expressing hMCR-4. Conditions: for pIC50: read-out: MC-4 IC50. On the procedure:
All cell culture media and reagents were obtained from GibcoBRL (Gaithersburg Md.), except for COSMIC CALF SERUM (HyClone; Logan Utah).
Cells were suspended in PBS, 10% COSMIC CALF SERUM and 1 mM CaCl2. Cell suspensions were prepared at a density of 2×10^4 cells/ml for HEK 293 cells expressing hMCR-3, hMCR-4 or hMCR-5, and 1×10^5 cells/ml for HEK 293 cells expressing hMCR-1. Suspensions were placed in a water bath and allowed to warm to 37° C. for 1 hr.
Binding assays were performed in a total volume of 250 μl for HEK 293 cells. […] To each tube was added 4×10^3 HEK 293 cells expressing hMCR-3, hMCR-4 or hMCR-5, or 2×10^4 cells expressing hMCR-1. Assays were incubated for 2.5 hr at 37° C.
GF/B filter plates were prepared by soaking for at least one hour in 5 mg/ml BSA and 10 mM CaCl2. Assays were filtered using a Brandel 96-well cell harvester (Brandel Inc.; Gaithersburg, Md.). The filters were washed four times with cold 50 mM Tris, pH 7.4, the filter plates were dehydrated for 2 hr and 35 μl of MICROSCINT was added to each well. Filter plates were counted using a Packard Topcount (Packard Instrument Co.) and data analyzed using GraphPad PRISM v2.0 (GraphPad Software Inc.; San Diego Calif.) and Microsoft EXCEL v5.0a (Microsoft Corp.; Redmond Wash.).
To assay isoquinoline compounds, binding assays were performed in duplicate in a 96 well format. […] A 0.2 ml aliquot of suspended cells was added to each well to give the cell numbers indicate above, and the cells were incubated at 37° C. for 2.5 hr. Cells were harvested on GF/B filter plates as described above and counted.

Where [1] appears, read: TRG 2406 and TRG 2407 libraries, inhibition of binding of 125I-HP 467.
[2] abbreviates: TRG 2408 and TRG 2409 libraries, inhibition of 125I-HP 467 binding.
Where [3] appears, read: competition with 125I-HP 467, HEK 293 cells expressing MCR-1.
The mark [4] stands for this setting: competition with 125I-HP 467, HEK 293 cells expressing MCR-4.
[5] abbreviates: inhibition of binding of 125I-HP 467, HEK 293 cells expressing MCR-4, TRG 2414 library.
Where [6] appears, read: inhibition of binding of 125I-HP 467, HEK 293 cells expressing MCR-1, TRG 2414 library.
Setting [7] is: inhibition of binding of 125I-HP 467, HEK 293 cells expressing MCR-1.

The term pIC50 denotes −log10 of the IC50, conventionally taken in molar units.

T1 sequence (Q01726 whole entry): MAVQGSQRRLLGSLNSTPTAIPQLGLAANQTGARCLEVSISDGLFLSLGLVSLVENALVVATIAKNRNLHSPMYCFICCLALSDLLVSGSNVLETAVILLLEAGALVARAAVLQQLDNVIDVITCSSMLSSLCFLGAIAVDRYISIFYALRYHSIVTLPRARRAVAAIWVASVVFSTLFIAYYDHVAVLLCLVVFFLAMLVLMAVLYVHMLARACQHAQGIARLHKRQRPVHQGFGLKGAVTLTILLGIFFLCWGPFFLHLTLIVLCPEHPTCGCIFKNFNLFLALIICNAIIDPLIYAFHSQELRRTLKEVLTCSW

As to `CCCOc1ccc(C2C(CNCc3ccccc3)c3ccccc3CN2CCCCC(CN)NCC(C)c2ccc(CC(C)C)cc2)cc1` (mixture of isomers) [Cmpd 192], the pIC50 on MCR-1 (TRG 2414 library, inhibition of binding of 125I-HP 467, HEK 293 cells expressing MCR-1) was 4.94; at MCR-4 (TRG 2414 library, inhibition of binding of 125I-HP 467, HEK 293 cells expressing MCR-4), 4.80.

In the case of `CNC(CN)CN1Cc2ccccc2C(CNC2CCCCC2)C1c1cccn1C` (mixture of isomers) [TRG 2405-94], the negative logarithm of the IC50 (pIC50) at MCR-1 (TRG 2405 section, inhibition of binding of 125I-HP 467, HEK 293 cells expressing MCR-1) is 5.68; at MCR-4 (TRG 2405 section, inhibition of binding of 125I-HP 467, HEK 293 cells expressing MCR-4) it was 4.98. Further, the “% Disp. MC-1 10 μM” value came to 68.9% at MCR-1 (first of duplicate) and 72% on MCR-1 (second of duplicate).

For `CNC(CN)CCCCN1Cc2ccccc2C(CNCc2ccccc2O)C1c1cccc(Oc2ccc(Cl)c(Cl)c2)c1` (mixture of isomers) [TRG 2406-4], the pIC50 was 5.76 on MCR-1 (setting [1]) and 5.42 at MCR-4 (setting [1]).

As to `NCCN1Cc2ccccc2C(CNCc2ccccc2O)C1c1ccc(Oc2ccccc2)cc1` (mixture of isomers) [TRG 2406-11], the pIC50 on MCR-1 (setting [1]) was 4.98; on MCR-4 (setting [1]), 5.15.

`CNC(CN)CCCCN1Cc2ccccc2C(CNc2ccccc2)C1c1ccc(Cl)cc1Cl` (mixture of isomers) [TRG 2407-1]: the results for the pIC50 at MCR-1 (setting [1]) and on MCR-4 (setting [1]) were 5.25 and 4.97, respectively.

For the compound `CNC(CN)CCCCN1Cc2ccccc2C(CNCc2ccccc2OC)C1c1ccc(Cl)cc1Cl` (mixture of isomers) [TRG 2407-14], the negative logarithm of the IC50 (pIC50) at MCR-1 (setting [1]) was 6.43; at MCR-4 (setting [1]), 6.39.

On to `CNC(CN)CCCCN1Cc2ccccc2C(CNCCc2ccccc2Cl)C1c1ccc(Cl)cc1Cl` (mixture of isomers) [TRG 2407-22], for which the pIC50 at MCR-1 (setting [1]) is 5.87; on MCR-4 (setting [1]) it was 6.16.

In the case of `CNC(CN)CCCCN1Cc2ccccc2C(CNCCc2ccccc2OC)C1c1ccc(Cl)cc1Cl` (mixture of isomers) [TRG 2407-23], the values for the pIC50 on MCR-1 (setting [1]) and on MCR-4 (setting [1]) were 6.03 and 6.16, respectively.

In the case of `CNC(CN)CCCCN1Cc2ccccc2C(CNCCc2cccc(Cl)c2)C1c1ccc(Cl)cc1Cl` (mixture of isomers) [TRG 2407-24], the pIC50 is 5.75 at MCR-1 (setting [1]) and 6.10 on MCR-4 (setting [1]).

In the case of `CNC(CN)CCCCN1Cc2ccccc2C(CNCC2CCCCC2)C1c1ccc(Cl)cc1Cl` (mixture of isomers) [TRG 2407-31], the pIC50 at MCR-1 (setting [1]) is 5.95; at MCR-4 (setting [1]), 5.99.

`CNC(CN)CCCCN1Cc2ccccc2C(CNN2CCCCC2)C1c1ccc(Cl)cc1Cl` (mixture of isomers) [TRG 2407-34]: the values for the pIC50 on MCR-1 (setting [1]) and at MCR-4 (setting [1]) were 5.40 and 5.70, respectively.

As for `CCNc1ccc(C2C(CNc3cccc(O)c3)c3ccccc3CN2CCCCC(CN)NC)cc1` (mixture of isomers) [TRG 2407-47], the pIC50 on MCR-1 (setting [1]) was 6.08. Moreover, on MCR-4 (setting [1]), the “MC-4 IC50” value is on record as “no fit”.

In the case of `CCNc1ccc(C2C(CNC3CCCCC3)c3ccccc3CN2CCCCC(CN)NCCN)cc1` (mixture of isomers) [TRG 2408-7], the pIC50 at MCR-1 (setting [2]) was 5.89; at MCR-4 (setting [2]), 4.35.

Turning to `CNCCNC(CN)CCCCN1Cc2ccccc2C(CNC2CCCCC2)C1c1ccc(-c2ccccc2)cc1` (mixture of isomers) [TRG 2408-24], the pIC50 is 5.71 at MCR-1 (setting [2]) and 4.77 on MCR-4 (setting [2]).

As for `CCNc1ccc(C2C(CNC3CCCCC3)c3ccccc3CN2CCCCC(N)CN)cc1` (mixture of isomers) [TRG 2408-31], the pIC50 is 5.90 on MCR-1 (setting [2]) and 4.33 on MCR-4 (setting [2]).

For the compound `NCC(CCN1Cc2ccccc2C(CNC2CCCCC2)C1c1ccc(Cl)cc1Cl)NCCc1ccccc1` (mixture of isomers) [TRG 2408-102], the values for the pIC50 on MCR-1 (setting [2]) and at MCR-4 (setting [2]) were 5.15 and 5.73, respectively.

Turning to `NCC(N)CCN1Cc2ccccc2C(CNC2CCCCC2)C1c1ccc(-c2ccccc2)cc1` (mixture of isomers) [TRG 2408-111], the figures for the pIC50 on MCR-1 (setting [2]) and at MCR-4 (setting [2]) were 5.12 and 4.92, respectively.

Consider `CNCCNC(CN)CCN1Cc2ccccc2C(CNC2CCCCC2)C1c1ccc(-c2ccccc2)cc1` (mixture of isomers) [TRG 2408-114], for which the pIC50 on MCR-1 (setting [2]) is 5.49; on MCR-4 (setting [2]), 4.98.

With `CNC(C)CNC(CN)CCCCN1Cc2ccccc2C(CN)C1c1ccc(-c2ccccc2)cc1` (mixture of isomers) [TRG 2411-28], the pIC50 at MCR-1 (setting [3]) is 6.25; at MCR-4 (setting [4]), 5.91.

In the case of `CCNc1ccc(C2C(CNCCc3ccccc3)c3ccccc3CN2CCCCC(CN)NCCc2ccc(Br)cc2)cc1` (mixture of isomers) [TRG 2411-41], the pIC50 on MCR-1 (setting [3]) was 6.31; at MCR-4 (setting [4]) it was 5.79.

On to `CCCCNc1ccc(C2C(CNC3CCCCC3)c3ccccc3CN2CCCCC(CN)NCC)cc1` (mixture of isomers) [TRG 2411-87], for which the pIC50 is 6.64 at MCR-1 (setting [3]) and 6.08 on MCR-4 (setting [4]).

For `NCC(CCCCN1Cc2ccccc2C(CNCc2ccccc2C(F)(F)F)C1c1ccc(Cl)cc1Cl)NCc1ccccc1` (mixture of isomers) [TRG 2414-3], at MCR-4 (setting [5]), the pIC50 is 4.18.

For `COc1ccccc1CCNCC1c2ccccc2CN(CCCCC(N)CN)C1c1ccc(Cl)cc1Cl` (mixture of isomers) [TRG 2414-9], the values for the pIC50 at MCR-1 (setting [6]) and at MCR-4 (setting [5]) were 5.96 and 6.15, respectively.

Turning to `COc1ccccc1CCNCC1c2ccccc2CN(CCCCC(CN)NCc2ccccc2)C1c1ccc(Cl)cc1Cl` (mixture of isomers) [TRG 2414-11], the pIC50 at MCR-1 (setting [6]) was 5.74; on MCR-4 (setting [5]), 5.46.

For the compound `CCNc1ccc(C2C(CNCCc3ccccc3)c3ccccc3CN2CCCC(CN)NC)cc1` (centres unmarked) [TRG 2413-12], the pIC50 on MCR-1 (setting [7]) was 6.72.

Consider `NCC(CCCN1Cc2ccccc2C(CNCCc2ccccc2)C1c1ccc([N+](=O)[O-])cc1)NCCc1ccccc1` (centres unmarked) [TRG 2413-13], for which the negative logarithm of the IC50 (pIC50) on MCR-1 (setting [7]) is 5.97.

As for `NCC(CCCN1Cc2ccccc2C(CNC2CCCCC2)C1c1ccc([N+](=O)[O-])cc1)NCCc1ccccc1` (centres unmarked) [TRG 2413-14], the pIC50 on MCR-1 (setting [7]) was 5.80.

Consider `NCC(CCCN1Cc2ccccc2C(CN)C1c1ccc([N+](=O)[O-])cc1)NCCc1ccccc1` (centres unmarked) [TRG 2413-15], for which, at MCR-1 (setting [7]), the pIC50 was 5.72.

In the case of `NCC(N)CCCCN1Cc2ccccc2C(CNCc2ccccc2C(F)(F)F)C1c1ccc(Cl)cc1Cl` (centres unmarked) [TRG 2414-1], at MCR-4 (setting [5]), the pIC50 was 5.12.

As to `NCC(CCCCN1Cc2ccccc2C(CNCc2ccccc2C(F)(F)F)C1c1ccc(Cl)cc1Cl)NCCc1ccccc1` (centres unmarked) [TRG 2414-2], the pIC50 on MCR-4 (setting [5]) was 4.53.

Take `CC(C)Cc1ccc(C(C)CNC(CN)CCCCN2Cc3ccccc3C(CNCc3ccccc3C(F)(F)F)C2c2ccc(Cl)cc2Cl)cc1` (centres unmarked) [TRG 2414-4]: the “MC-4 IC50” value on MCR-4 (setting [5]) is listed as “no fit”.

With `CCOc1ccccc1CNCC1c2ccccc2CN(CCCCC(N)CN)C1c1ccc(Cl)cc1Cl` (centres unmarked) [TRG 2414-5], the negative logarithm of the IC50 (pIC50) on MCR-4 (setting [5]) is 6.32.

On to `CCOc1ccccc1CNCC1c2ccccc2CN(CCCCC(CN)NCCc2ccccc2)C1c1ccc(Cl)cc1Cl` (centres unmarked) [TRG 2414-6], for which the pIC50 on MCR-4 (setting [5]) was 5.26.

With `CCOc1ccccc1CNCC1c2ccccc2CN(CCCCC(CN)NCc2ccccc2)C1c1ccc(Cl)cc1Cl` (centres unmarked) [TRG 2414-7], on MCR-4 (setting [5]), the negative logarithm of the IC50 (pIC50) is 5.34.

Turning to `CCOc1ccccc1CNCC1c2ccccc2CN(CCCCC(CN)NCC(C)c2ccc(CC(C)C)cc2)C1c1ccc(Cl)cc1Cl` (centres unmarked) [TRG 2414-8], the pIC50 on MCR-4 (setting [5]) was 4.86.

For `NCC(CCCCN1Cc2ccccc2C(CNCCc2ccc(Oc3ccccc3)cc2)C1c1cc(C(F)(F)F)cc(C(F)(F)F)c1)NCc1ccc(Br)cc1` (centres unmarked) [TRG 2421-28], the pIC50 on MCR-1 (setting [7]) was 4.80.

Take `NCC(CCCCN1Cc2ccccc2C(CNCCc2ccc(Oc3ccccc3)cc2)C1c1cc(C(F)(F)F)cc(C(F)(F)F)c1)NCc1ccc(-c2ccccc2)cc1` (centres unmarked) [TRG 2421-30]: the pIC50 at MCR-1 (setting [7]) is 4.44.
